# Assay: in vitro
# Settings: human, hela cells, % viability
row,SMILES,"viability at 28.5 h, 10 µM [%]"
1,COC(=O)[C@@H]1Cc2ncn(C)c2CN1S(=O)(=O)c1cccs1 [CBK288992],104
2,Cc1nn(CC(=O)NC2CC2)c(=O)c2cc3ccsc3n12 [CBK284026],92.3
3,NNC(=O)c1cc(-c2ccccc2)nc2ccc(Br)cc12 [CBK261762],102
4,O=C(CSc1nnc(COc2ccccc2)o1)N1CCN(c2ccccc2)CC1 [CBK267185],97.5
5,O=[N+]([O-])c1ccc(NC(c2ccccc2)C2CC2)nc1 (centres unmarked) [CBK295317],96.6
6,CCOC(=O)c1cnn2c(O)cc(CN(CC(C)(C)O)C(C)C)nc12 [CBK306133],93.6
7,COCCNC(=O)c1cc(C2CC2)nc2c1cnn2C(C)C [CBK306099],101
8,CCc1c(C)nc2c(C(=O)N3CCOCC3)cnn2c1C [CBK162134],99.3
9,CCC(CC)C(=O)N1c2ccccc2C(C)(c2ccccc2)CC1(C)C (centres unmarked) [CBK073862],91.5
10,COc1ccccc1C(C)N(C)CCC(=O)Nc1cc(C)on1 (centres unmarked) [CBK305098],94.1
11,Cn1cnc2c(ncn2C2OC(CO)C(O)C2O)c1=N (centres unmarked) [CBK201313],102
12,CCNc1nc(-c2cc(Cl)cc(Cl)c2)cn2ccnc12 [CBK066483],89.6
13,CCC(NC(=O)CCOC)c1cn2cccnc2n1 (centres unmarked) [CBK306560],88.2
14,COCCCOc1cncc(NC(C)C)n1 [CBK115880],89
15,Cc1nc(C)n(CC2CCCN(c3ncnc4ccsc34)C2)n1 (centres unmarked) [CBK304037],71.8
16,Cc1nc2ccc(C(=O)N3CCCCC3)cn2c1N(C)C=O [CBK145480],100
17,O=C(CN(c1ccccc1)S(=O)(=O)c1ccccc1[N+](=O)[O-])Nc1ccc(C(F)(F)F)cc1 [CBK267137],64.6
18,CCCn1cc(NC(=O)NC(C)(CC)CO)ccc1=O (centres unmarked) [CBK304864],88.7
19,O=C1c2ccccc2S(=O)(=O)N1CC(O)Cn1c2ccc(Cl)cc2c2cc(Cl)ccc21 (centres unmarked) [CBK262327],101
20,CC(=O)c1ccc(N(C)C)cc1 [CBK033830],106
21,OC(CNCCNc1nccc(C(F)(F)F)n1)Cn1ccc2ccccc21 (centres unmarked) [CBK074642],106
22,O=C(O)CSc1nnc(-c2ccncc2)n1-c1ccc(Cl)cc1 [CBK266686],92.1

row,SMILES,"viability at 28.5 h, 10 µM [%]"
1,CC1CCCCN1S(=O)(=O)c1cccc2nonc12 (centres unmarked) [CBK261723],94.5
2,COc1ccccc1NC(CC(=O)c1ccccc1)C(=O)O (centres unmarked) [CBK287190],83.8
3,COc1cc2nc3c4ccccc4n(CC(=O)O)c3nc2cc1OC [CBK263626],86.8
4,O=C1NC2(CCN(C(=O)Cc3ccc(F)cc3)CC2)Oc2ccc(-c3ccccc3)cc21 [CBK115832],93.5
5,CCCS(=O)(=O)NC[C@H]1C[C@@H]2CCN1C[C@@H]2c1cc(-c2cccs2)nn1C [CBK289101],98.4
6,C=C(C)CN1CCN(C(=O)CSc2nccc3ccccc23)CC1 [CBK282712],88.4
7,Cc1csc2c(C3CCCN(C(=O)c4cccnc4)C3)nc(C)n12 (centres unmarked) [CBK283329],93.4
8,CN(C)c1ncccc1OC1CCN(c2nnc(C(F)(F)F)s2)C1 (centres unmarked) [CBK304789],97.1
9,CCCCOc1ccc(S(=O)(=O)N2CCN(c3cccc(C)c3C)CC2)cc1 [CBK099293],114
10,Cn1cnc(C(=O)N2CC[C@H]3NC(=O)c4ccccc4OCCCCC[C@H]3C2)c1 [CBK292031],88.9
11,O=C(O)COc1ccc(NC(=O)C(c2ccccc2)c2ccccc2)cc1 [CBK264250],99.6
12,O=C(Nc1ccc(S(=O)(=O)N2CCCC2)cc1)C1CC(=O)N(Cc2ccco2)C1 (centres unmarked) [CBK297500],92.5
13,COc1cccc(-c2nccnc2C2CCCN(S(=O)(=O)c3ccc(F)cc3)C2)c1 (centres unmarked) [CBK286138],108
14,Cc1oc(NC(=O)CN2CCN(c3ccccc3Cl)CC2)c(C#N)c1C [CBK305908],84.7
15,Cc1cc(NC(=O)CN2CC(C)CC(C)C2)nc2c1c(=O)oc1ccccc12 (centres unmarked) [CBK287620],108
16,CC(NC(=O)C1C2CCC(CC2)C1C(=O)O)c1ccncc1 (centres unmarked) [CBK287061],102
17,Cc1cc(C)n(CCCNC(=O)N2CCC(c3nccs3)CC2)n1 [CBK304088],91.9
18,COc1ccc(/C=N/c2cc(S(=O)(=O)c3ccc(O)c(/N=C/c4ccc(OC)c(O)c4)c3)ccc2O)cc1O [CBK261223],92.3
19,CC(CNC(=O)C1CCCCC1C(=O)O)c1ccccc1 (centres unmarked) [CBK268028],97.1
20,O=C(c1ccccc1F)N1CCCC(c2n[nH]c3ncccc23)C1 (centres unmarked) [CBK282672],101
21,N#C/C(=C/c1cn(CC(=O)O)c2ccccc12)c1ccc(C(=O)O)cc1 [CBK268977],111
22,Cc1nn(CC(=O)N2CCCCCC2)c(=O)c2cc3occc3n12 [CBK283624],96.5

row,SMILES,"viability at 28.5 h, 10 µM [%]"
1,O=C(O)c1ccc(N2C(=O)c3ccc(Oc4ccc(S(=O)(=O)c5ccc(C(=O)O)cc5)cc4)cc3C2=O)cc1 [CBK263603],96.8
2,Cc1ccc(CN(CCCN(C)C)Cc2cccc(O)c2)o1 [CBK283173],108
3,COC(=O)c1ccc(CSc2nnc(-c3ccc(OC)cc3)n2C(C)C)o1 [CBK297523],96.4
4,COc1ccccc1N1CCN(c2ccc([N+](=O)[O-])cc2C(=O)O)CC1 [CBK286692],96.3
5,O=[N+]([O-])c1ccc(/C=N/C23CN4CN(CN(C4)C2)C3)s1 [CBK261752],105
6,COc1ccc(C(=O)COc2nc3c(C(F)(F)F)cc(C4CC4)nc3o2)cc1 [CBK269498],87
7,Cc1ccc(S(=O)(=O)Nc2cc(C)on2)cc1 [CBK261119],93.7
8,O=C(NC(c1ccc(-c2ccccc2)cc1)c1cnccn1)C1CCN(C/C=C/c2ccccc2)CC1 (centres unmarked) [CBK147984],104
9,Cc1ccccc1-n1ncc2c(N3CCCC3)ncnc21 [CBK287648],99.2
10,Cc1cc(=O)c2ccccc2n1CC(=O)N(C)CC1CCCCO1 (centres unmarked) [CBK306960],94.4
11,COc1ccc(OCc2nc3ccccc3[nH]2)cc1 [CBK261030],94.8
12,Clc1ccc(CNC2CCCCC2NCc2ccc(Cl)nc2)cn1 (centres unmarked) [CBK025983],82.7
13,CCCCNC(=O)N(O)C1N(C)C(=S)SC1(C)C (centres unmarked) [CBK006880],91.2
14,S=C1NCN(Cc2ccccc2)CN1c1ccccc1 [CBK263536],91.3
15,N#CCc1ccc(OC(=O)c2cccnc2)cc1 [CBK090304],105
16,O=C(Cn1cc(Br)ccc1=O)NC1CCN(Cc2ccccc2)CC1 [CBK305671],95.6
17,Cc1n[nH]c(C)c1C12CC3CC(CC(CC(=O)O)(C3)C1)C2 [CBK288241],92.2
18,CN(C)CC(C)(C)CNC(=O)c1cnc2cc(C(F)(F)F)ccc2c1O [CBK107427],97.9
19,c1ccc2c(-c3cc(Nc4ccc5[nH]ccc5c4)ncn3)cccc2c1 [CBK037815],42.9
20,O=C(CSc1nnc(SCc2cccc3ccccc23)s1)c1ccc2c(c1)OCO2 [CBK267576],100
21,O=C1/C(=C/c2c(NCCCn3ccnc3)nc3ccccn3c2=O)SC(=S)N1CC1CCCO1 (centres unmarked) [CBK111310],99.3
22,CCOC(=O)C1=C(C)N(CC)C(=O)NC1c1cc(OC)c(OC)c(OC)c1 (centres unmarked) [CBK091912],98.3

row,SMILES,"viability at 28.5 h, 10 µM [%]"
1,Cc1nc(NS(=O)(=O)c2cc(F)c(Br)cc2F)sc1C(=O)O [CBK045556],96.5
2,O=C(CC1SCCNC1=O)NCc1ccccc1 (centres unmarked) [CBK270202],99.1
3,CN(C)CCn1cnc2c1c(=O)[nH]c(=O)n2Cc1ccccc1 [CBK291235],96.9
4,CCc1nc(-c2ccc(N(C)C)nc2)n(C)n1 [CBK306897],90.6
5,CCN(C(C)COC)S(=O)(=O)c1cccc(Cl)c1Cl (centres unmarked) [CBK305146],98.4
6,Cc1ccc(S(=O)(=O)Nc2sccc2C(=O)Nc2ccc(F)cc2)cc1 [CBK042302],98.5
7,Cc1ncsc1CCOc1nccnc1N1CCCC1 [CBK115752],86.5
8,O=C(Nc1ccc(Br)cc1C(=O)c1ccccc1)c1ccc([N+](=O)[O-])s1 [CBK066838],111
9,NC(=O)c1ccc(C#Cc2ccccc2)o1 [CBK009809],94.8
10,CC(Cc1nc(C2CC2)cs1)n1cc(Cl)cn1 (centres unmarked) [CBK304707],90.1
11,CC(/C=C/c1ccccc1)=N\NC(=O)C(C)Oc1ccc(Br)cc1 (centres unmarked) [CBK261212],99.7
12,COc1ccc(C(CC(=O)O)C(=O)O)cc1OC (centres unmarked) [CBK261943],90.4
13,Cc1nccn1CCN(C)C(=O)C1CC2C=CC1C21CC1 (centres unmarked) [CBK282084],91.7
14,Nc1nc(NCCc2ccccc2)nc(-c2cc(Cl)ccc2O)n1 [CBK074551],91.8
15,CCn1c(SCC(=O)Nc2cc(Cl)ccc2O)nnc1-c1ccccc1 [CBK269680],87.4
16,CCCCC12CN3CC(C)(CN(C1)C31C(=O)Nc3ccc(Br)cc31)C2=O (centres unmarked) [CBK267348],96
17,O=C(c1ccccc1F)[C@H]1CCCN(C(=O)c2cc(C3CC3)n[nH]2)C1 [CBK284330],80
18,Cc1[nH]c2ccccc2c1C(=O)N1CCC(CC(=O)N2CCN(c3ccccc3)CC2)CC1 [CBK286033],96.6
19,c1csc(-c2cncc(NCCCN3CCOCC3)n2)c1 [CBK065623],102
20,COc1ccccc1C1(O)CCN(Cc2ccccc2OCc2ccc3c(c2)OCO3)CC1 [CBK286337],80.4
21,Cc1nn(C)c(Cl)c1S(=O)(=O)Nc1cccnc1N1CCOCC1 [CBK062286],99.5
22,O=C(Nc1cc(Oc2cccnc2)cc([N+](=O)[O-])c1)c1cc2nc(-c3ccccc3)cc(-c3ccccc3)n2n1 [CBK262554],87.3

# Same assay, conditions: human, hela cells, % viability, bulk resorufin, single well
row,SMILES,"viability at 28.5 h, 10 µM [%]"
1,O=C(O)COc1ccc(/C=C2\C(=O)NC(=O)N(c3ccc(OCc4ccccc4)cc3)C2=O)cc1 [CBK265449],83.6

# Source: PMC12040169 (PLOS Biology, 2025)
